From article PMC12732675, “Catalytically Active Recombinant Cysteine Proteases of Haemonchus contortus: Their Ability to Degrade Host Blood Proteins and Modulate Coagulation” (International Journal of Molecular Sciences, 2025)

What was measured:
mHcCP1c = target: T1, mHcCP1c (Haemonchus contortus, UniProt A0A7I4XTV4); experiment: ovine fibrinogen degradation, SDS-PAGE; type: biochemical; settings: 10 and 50 uM E-64, 15 min pre-incubation, PBS pH 7.4, 37 °C, 16 h; irreversible, covalent
T1 construct: native signal peptide replaced by CD5 signal; C-terminal His tag; secreted from FreeStyle 293-F cells; Ni-NTA purified
T1 sequence (A0A7I4XTV4 entry or part of it): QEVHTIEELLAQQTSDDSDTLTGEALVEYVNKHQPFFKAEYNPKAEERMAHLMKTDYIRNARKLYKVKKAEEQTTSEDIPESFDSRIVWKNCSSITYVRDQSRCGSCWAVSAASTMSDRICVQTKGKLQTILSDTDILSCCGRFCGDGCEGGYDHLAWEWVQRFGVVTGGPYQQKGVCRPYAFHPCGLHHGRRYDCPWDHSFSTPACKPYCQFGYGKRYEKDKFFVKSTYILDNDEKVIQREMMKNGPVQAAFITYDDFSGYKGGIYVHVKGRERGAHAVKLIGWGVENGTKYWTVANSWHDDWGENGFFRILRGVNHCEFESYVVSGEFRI

mHcCBP1 = target: T2, mHcCBP1 (Haemonchus contortus, UniProt A0A7I4Z8W6); experiment: ovine fibrinogen degradation, SDS-PAGE; type: biochemical; settings: 10 and 50 uM E-64, 15 min pre-incubation, PBS pH 7.4, 37 °C, 16 h; irreversible, covalent
T2 construct: native signal peptide replaced by CD5 signal; C-terminal His tag; secreted from FreeStyle 293-F cells; Ni-NTA purified
T2 sequence (A0A7I4Z8W6 entry or part of it): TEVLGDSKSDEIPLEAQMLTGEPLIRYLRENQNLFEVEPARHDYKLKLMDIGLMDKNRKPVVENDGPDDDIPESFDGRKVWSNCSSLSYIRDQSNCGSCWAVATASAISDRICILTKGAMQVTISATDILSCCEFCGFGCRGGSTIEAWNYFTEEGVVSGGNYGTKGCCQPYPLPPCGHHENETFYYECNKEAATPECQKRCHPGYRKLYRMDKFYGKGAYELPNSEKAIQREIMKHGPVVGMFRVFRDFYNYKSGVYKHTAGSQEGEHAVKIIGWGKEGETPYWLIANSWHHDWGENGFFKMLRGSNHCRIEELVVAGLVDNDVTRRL

`CC(C)C[C@H](NC(=O)[C@H]1O[C@@H]1C(=O)O)C(=O)NCCCCN=C(N)N` [E-64, L-trans-epoxysuccinyl-leucyl-amido (4-guanidino) butane] was tested, and the “ovine fibrinogen degradation, SDS-PAGE” value (mHcCP1c) was “ablation of the fibrinogenolytic activities of mHcCBP1, mHcCP1c (Figure 7A)” and the “ovine fibrinogen degradation, SDS-PAGE” value (mHcCBP1) was “ablation of the fibrinogenolytic activities of mHcCBP1, mHcCP1c (Figure 7A)”.
